Results published in PMC11289669, “BAR502/fibrate conjugates: synthesis, biological evaluation and metabolic profile” (Frontiers in Chemistry, 2024).
Several values for one entry are separate records, joined by “and”; a condition that tells them apart may be missing. Identical values can stand only once.

Assays:
FXR = target: T1, FXR (Homo sapiens, UniProt Q96RI1); experiment: AlphaScreen coactivator (SRC-1) recruitment assay on FXR; format: biochemical; details: for FXR efficacy (% vs. CDCA): AlphaScreen SRC-1 recruitment, compounds at 10 μM, CDCA = 100%; for EC50: AlphaScreen coactivator recruitment, FXR with SRC-1
T1 sequence (Q96RI1 262-486 limits assumed): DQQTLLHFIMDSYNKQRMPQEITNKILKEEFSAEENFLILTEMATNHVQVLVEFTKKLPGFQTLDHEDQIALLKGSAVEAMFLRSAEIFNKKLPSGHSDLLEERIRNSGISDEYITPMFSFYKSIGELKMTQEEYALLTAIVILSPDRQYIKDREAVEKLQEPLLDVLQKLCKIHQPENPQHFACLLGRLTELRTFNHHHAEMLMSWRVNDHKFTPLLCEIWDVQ
Description: Compounds’ ability to mediate cofactor recruitment was evaluated by employing AlphaScreen GST Detection Kit (PerkinElmer). Particularly, FXR agonism was evaluated employing 10 nM FXR-LBD GST-fused (Thermo Scientific) and 30 nM of biotinylated SRC1 peptide ([…]) in the presence of 20 μg/mL donor and acceptor beads and in buffer containing 50 mM Tris-HCl (pH7.4), 20 mM KCl, 1 mM DTT, and 0.1% BSA. For PPARα assay, a buffer containing 50 mM MOPS, 50 mM NaF, 0.05 mM CHAPS, and 0.05% BSA (pH = 7.4) was used, and 20 nM PPARα LBD GST fused (Thermo Scientific) and 60 nM of biotinylated SRC1 peptide were employed. Both acceptor and donor beads were added to reach 20 μg/mL final concentration. Incubations were performed in a final volume of 25 μL employing 384 wells Optiplate and Alpha signal was measured with Envision 2,105 (Perkin Elmer) multimode plate reader. For efficacy, compounds were tested at 10 μM for FXR and 50 μM for PPARα.

GPBAR1 = target: T2, GPBAR1 (Homo sapiens, UniProt Q8TDU6); experiment: GPBAR1 transactivation (CRE-luciferase reporter) assay in HEK-293T cells; format: cell-based; details: for Emax: 18 h, read-out: GPBAR1 efficacy (% vs. TLCA); for EC50: transactivation assay, HEK-293T cells
T2 construct: expressed in transfected cells; host or cells: HEK-293T
T2 sequence (Q8TDU6 1-330): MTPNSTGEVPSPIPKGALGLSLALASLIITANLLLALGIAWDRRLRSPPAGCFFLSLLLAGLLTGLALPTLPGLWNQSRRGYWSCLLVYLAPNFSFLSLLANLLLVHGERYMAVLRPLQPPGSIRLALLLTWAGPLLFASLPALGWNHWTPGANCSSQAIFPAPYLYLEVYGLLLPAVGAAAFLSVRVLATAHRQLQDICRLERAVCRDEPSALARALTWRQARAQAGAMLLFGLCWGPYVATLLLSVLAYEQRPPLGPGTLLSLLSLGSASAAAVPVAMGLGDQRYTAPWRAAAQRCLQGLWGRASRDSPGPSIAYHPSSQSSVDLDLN
Description: HepG2 and HEK-293T cells were cultured at 37 °C in minimal essential medium (MEM) and Dulbecco’s Modified Eagle Medium (DMEM) respectively, supplemented with 10% fetal bovine serum, 1% L-glutamine, 100 U/mL penicillin, and 100 μg/mL streptomycin. To investigate FXR-mediated transactivation, the HepG2 cells were transfected with 200 ng of the reporter vector p (hsp27)TK-Luc containing the FXR response element IR1 cloned from the promoter of heat shock protein 27 (hsp27), plus 100 ng pSG5-FXR, 100 ng pSG5-RXR, and 100 ng pGL4.70 Renilla. To evaluate GPBAR1 mediated transactivation, HEK-293T cells were transfected with 200 ng of human pGL4.29 (Promega), a reporter vector containing a cAMP response element (CRE) that drives the transcription of the luciferase reporter gene luc2P, with 100 ng of pCMVSPORT6-human GPBAR1, and with 100 ng of pGL4.70. At 24 h post-transfection, cells were stimulated 18 h with 10 μM TLCA (taurolithocholic acid a GPBAR1 agonist) or CDCA (FXR agonist) and compounds. To calculate the EC50 on FXR and GPBAR1, dose-response curves were performed in HEK-293T cells transfected as described above and then treated with increasing concentrations of compounds (from 0.1 to 50 µM). After treatments, cells were lysed in 100 μL of lysis buffer (25 mM Tris-phosphate, pH 7.8; 2 mM DTT; 10% glycerol; 1% Triton X-100), and 10 μL of cellular lysate was assayed for luciferase activity using the Firfly &Renilla Luciferase assay kit (Biotium). Luminescence was measured using Glomax 20/20 luminometer (Promega). Luciferase activities were assayed and normalized with Renilla activities.

U937 cells = experiment: Pro-inflammatory gene expression (qRT-PCR) in LPS-activated U937 cells; format: cell-based, human; details: LPS 100 ng/mL, 18 h, compound 1 10 μM; for IL-1β mRNA expression / IL-6 mRNA expression: BAR502 and clofibrate 5 and 10 μM
Description: U937 cell line were cultured in RPMI 1640 supplemented with 10% FBS, 1% glutamine, and 1% penicillin/streptomycin and were regularly passaged to maintain exponential growth. After 24 h of starvation cells were classically activated with LPS (100 ng/mL; Sigma-Aldrich, St. Louis, MO), and exposed or not to BAR502, clofibrate and compound 1 at the concentration of 5 and 10 μM for 18 h. At the end of the experiment the cells were recovered. Total mRNA extraction from U937 and 3T3.L1 was performed using Tri-Reagent (Zymo Research) and Direct-zolTM RNA MiniPrep w/Zymo-SpinTM IIC Columns (Zymo Research, Irvine, CA). After purification from genomic DNA using DNase I (Thermo Fisher Scientific, Waltham, MA), 1 μg of RNA from each sample was reverse transcribed using Kit […] Basic (Nippon Genetics, […] 20-μL of reaction volume; 50 ng of cDNA was amplified in a 20-μL solution containing 200 nM each primer and 10 μL of PowerUpTM SYBRTM Green Master Mix (Thermo Fisher Scientific, Waltham, MA). All reactions were performed in triplicate using the following thermal cycling conditions: 3 min at 95°C, followed by 40 cycles of 95°C for 15 s, 56°C for 20 s, and 72°C for 30 s, using a QuantStudio 3 system (Applied Biosystems, Foster City, CA). The relative mRNA expression was calculated accordingly to the ΔCt method. Primers were designed using the software PRIMER3 (http://frodo.wi.mit.edu/primer3/) using published data obtained from the NCBI database. The primer used were as following (forward and reverse): hGAPDH (for […]-1β (for [NT], hIL6 (for [NT] hCXCL2 (for [NT] hTNFα; (for [NT], mAdiponectin (for […]ɤ (for [NT], mCebp (for [NT]

[1] = transactivation on HEK-293T cells, TLCA 10 μM = 100%

Compound | FXR efficacy (% vs. CDCA) (FXR) | EC50 (FXR) [nM] | Emax (GPBAR1; [1]) [%] | EC50 (GPBAR1) [nM] | IL-1β mRNA expression (U937 cells) | IL-6 mRNA expression (U937 cells) | GPBAR1 efficacy (% vs. TLCA) (GPBAR1; [1]) [%] | CXCL2 mRNA expression (U937 cells)
CC[C@H]1[C@@H](O)[C@@H]2[C@H](CC[C@]3(C)[C@@H]([C@H](C)CCO)CC[C@@H]23)[C@@]2(C)CC[C@@H](O)C[C@@H]12 [BAR502, 6α-ethyl-3α,7α-dihydroxy-24-nor-5β-cholan-23-ol] | 153.0 ± 3.1% | 690 ± 150 | 79.5 ± 11.8 | 400 ± 100 | reducing the expression of pro-inflammatory cytokines | reducing the expression of pro-inflammatory cytokines |  | 
CC[C@@H]1C2C[C@H](O)CC[C@]2(C)C2CC[C@@]3(C)C(CC[C@@H]3[C@H](C)CCOC(=O)C(C)(C)Oc3ccc(Cl)cc3)C2[C@@H]1O (some centres unmarked) [Compound 1] | 79% and 79.0 ± 3.8% | 3400 ± 1200 | 145 | 370 ± 20 | greatest efficacy in reducing the expression | greatest efficacy in reducing the expression | 145 ± 10 | the only compound also reducing the expression
